Test results from patent US4119719A, “Piperazine compounds” (Parcor, priority 1975, dated 1978).
Structures can show the parent of a compound that is named as a salt.

Columns and labels:
[1] = tested on: stretching movements induced by acetic acid; experiment: Analgesic activity: acetic acid stretching movements (method of Koster, Anderson and De Beer); format: in vivo; conditions: mice, 50 mg/kg oral thirty minutes before acetic acid; reduction in stretching movements in next thirty minutes
Method: The intraperitoneal injection of a dilute solution of acetic acid causes, in mice, repeated characteristic stretching movements under the effect of the pain. The oral administration of a dosage of 50 mg/kg of the test derivative, thirty minutes before the injection of acetic acid, reduces the number of movements in the next thirty minutes. In this way, the average number of stretching movements and the percentage analgesia obtained, corresponding to the percentage reduction in the number of stretching movements, compared with the controls, are determined.

[2] = tested on: dyslipaemia; experiment: Hypocholesterolaemic activity: rabbits kept on a hypercholesterolaemic diet, biological tests of dyslipaemia; format: in vivo; parameters: total cholesterol (T) / esterified cholesterol (E) / free cholesterol (L) / Burstein test with dextrane (B) / serum lipids (LS): unit not given here; conditions: 10 mg/kg daily oral
Method: (§1) (b) This study was carried out on rabbits kept on a hypercholesterolaemic diet. The rabbits are divided into batches of 40 animals; the control batch (A) receives no treatment, whereas the treated batches are given the medicines according to the invention. Thus, derivative no. 1 is administered to the animals in batch B, derivative no. 5 to those in batch C and derivative no. 7 to those in batch D, by oral route, daily, in dosage of 10 mg/kg. On the first day of the experiments and then every 15 days, for a period of 75 days, biological tests are carried out on all the animals, whereby the various elements which indicate dyslipaemia are determined: total cholesterol (T), esterified cholesterol (E), free cholesterol (L), esterification ratio (E/T), Kunkel phenol test (K1), Kunkel phenol test (K2), Burstein test with dextrane (B) and serum lipids (LS).
(§2) The results, representing the average values determined with each batch, are assembled in the following Tables: […]

[3] = tested on: livers and aortas; experiment: Rabbits kept on a hypercholesterolaemic diet: macroscopic examination of livers and aortas; format: in vivo; conditions: 10 mg/kg daily oral, end of experiment; for aortic atheromatous lesions: marked in intensity from 0 to 4; for fatty infiltrations of the liver: marked in size from 0 to 3
Method: as §1
At the end of the experiment, all the animals are killed and autopsies are performed on them; macroscopic examinations of their livers and aortas are then carried out, and the fatty infiltrations of the liver are marked, in size, from 0 to 3 and the aortic atheromatous lesions are marked, in intensity, from 0 to 4.
as §2

[4] = LD50 /24 hours, intravenous route in mice (method of Miller and Tainter); conditions: mouse, in vivo, read-out: LD50 /24 hours/kg of body weight
Method: 1, 53 mg for derivative no. 2, 89 mg for derivative no. 3, 57 mg for derivative no. 4, 41 mg for derivative no. 5, 62 mg for derivative no. 6, 66 mg for derivative no. 7, 74 mg for derivative no. 8 and 100 mg for derivative no. 9.

[5] = tested on: cholesterol level in the plasma; experiment: Hypocholesterolaemic activity: test using propyl thiouracil; format: in vivo; conditions: rats, 10 mg/kg orally, 11th day
Description: (a) Test using propyl thiouracil ([…] and Coll., J. Pharmacol. Exper. Therap., 1963, 142, 132-136). […] On the 11th day of the experiment, blood samples are taken and the free cholesterol and total cholesterol are estimated.

[6] = tested on: carrageenin-induced oedema; experiment: Anti-inflammatory activity: localised carrageenin-induced oedema; format: in vivo; conditions: rat, 10 mg/kg oral (four administrations)
Method: A 1% carrageenin solution (0.1 ml) is injected into the metatarsal flexors of the right hind paw of the rat at time 0. The animals in the treated batch are also given by oral route, 10 mg/kg of the test derivative, one hour before, then at the same time as the injection of the phlogogenic agent, then one hour and 21/2 hours afterwards, respectively. The measurements taken with a Roch micrometer at time 0, then 1 hour, 2 hours, 3 hours and 5 hours after administration of the carrageenin make it possible to determine, as a function of time, the percentage anti-inflammatory activity compared with the control batch.

[7] = tested on: ovalbumin oedema; experiment: Anti-inflammatory activity: generalised ovalbumin oedema; format: in vivo; conditions: rat, 50 mg oral one hour before and at injection of ovalbumin
Method: The rat is given a simultaneous intraperitoneal injection of 1 ml of ovalbumin and 0.5 ml of a 1% aqueous solution of Evans blue. Moreover, 50 mg of the test derivative are administered orally to the animals of the test batches one hour before and at the same time as the injection of ovalbumin. The intensity of the phenomenon thus induced is given a mark from 1 to 5, depending on the progression of the inflammatory syndrome. Thus, the average oedematous intensity and the percentage reduction in the oedematous reaction, compared with the control, are determined.

Cc1ccc(N2CCN(CCCNC3CCCCC3)CC2)cc1 [Derivative no. 1, 1-(3-cyclohexylamino-propyl)-4-p-tolyl-piperazine]
average percentage of analgesia [1]: 65% | Burstein test with dextrane (B) ([2]; 1st Day): 11.1 | Kunkel phenol test (K1) ([2]; 1st Day): 8.2 | Kunkel phenol test (K2) ([2]; 1st Day): 13.7 | esterification ratio (E/T) ([2]; 1st Day): 0.50 | esterified cholesterol (E) ([2]; 1st Day): 0.28 | free cholesterol (L) ([2]; 1st Day): 0.27 | serum lipids (LS) ([2]; 1st Day): 1.95 | total cholesterol (T) ([2]; 1st Day): 0.55 | Burstein test with dextrane (B) ([2]; 30th Day): 21.2 | Kunkel phenol test (K1) ([2]; 30th Day): 18.6 | Kunkel phenol test (K2) ([2]; 30th Day): 25.4 | esterification ratio (E/T) ([2]; 30th Day): 0.62 | esterified cholesterol (E) ([2]; 30th Day): 0.92 | free cholesterol (L) ([2]; 30th Day): 0.55 | serum lipids (LS) ([2]; 30th Day): 2.91 | total cholesterol (T) ([2]; 30th Day): 1.47 | Burstein test with dextrane (B) ([2]; 75th Day): 35.8 | Kunkel phenol test (K1) ([2]; 75th Day): 33.1 | Kunkel phenol test (K2) ([2]; 75th Day): 41.9 | esterification ratio (E/T) ([2]; 75th Day): 0.66 | esterified cholesterol (E) ([2]; 75th Day): 1.80 | free cholesterol (L) ([2]; 75th Day): 1.12 | serum lipids (LS) ([2]; 75th Day): 4.03 | total cholesterol (T) ([2]; 75th Day): 2.92 | aortic atheromatous lesions [3]: 1.4 | fatty infiltrations of the liver [3]: 0.9 | LD50 at 24 h [4]: 25 mg/kg

Clc1ccc(N2CCN(CCCN3CCCCC3)CC2)cc1 [Derivative no. 2, 4-p-chlorophenyl-1-(3-piperidinopropyl)-piperazine]
Free cholesterol [5]: 0.13 g/L | Total cholesterol [5]: 0.62 g/L | average percentage of analgesia [1]: 72% | LD50 at 24 h [4]: 53 mg/kg

CCCNCCCN1CCN(c2ccc(F)cc2)CC1 [Derivative no. 3, 1-(p-fluorophenyl)-4-(3-N-propylamino)propyl piperazine trihydrochloride]
Percentage anti-inflammatory activity ([6]; after 1 hr): 31% | Percentage anti-inflammatory activity ([6]; after 2 hrs): 44% | Percentage anti-inflammatory activity ([6]; after 3 hrs): 47% | Percentage anti-inflammatory activity ([6]; after 5 hrs): 49% | LD50 at 24 h [4]: 89 mg/kg | Percentage reduction in oedematous reaction ([7]; 2nd hour): 51% | Percentage reduction in oedematous reaction ([7]; 3rd hour): 62%

CCCNCCCN1CCN(c2cccc(C(F)(F)F)c2)CC1 [Derivative no. 4, 1-(3-n-propylaminopropyl)-4-(m-trifluoro-methylphenyl)-piperazine dihydrochloride]
Percentage anti-inflammatory activity ([6]; after 1 hr): 39% | Percentage anti-inflammatory activity ([6]; after 2 hrs): 51% | Percentage anti-inflammatory activity ([6]; after 3 hrs): 53% | Percentage anti-inflammatory activity ([6]; after 5 hrs): 58% | LD50 at 24 h [4]: 57 mg/kg | Percentage reduction in oedematous reaction ([7]; 2nd hour): 49% | Percentage reduction in oedematous reaction ([7]; 3rd hour): 61%

Cl.Cl.Cl.Clc1ccc(N2CCN(CCCNC3CCCCC3)CC2)cc1 [Derivative no. 5, 1-(3-cyclohexylamino-propyl)-4-(p-chlorophenyl)-piperazine trihydrochloride]
Free cholesterol [5]: 0.16 g/L | Total cholesterol [5]: 0.55 g/L | Burstein test with dextrane (B) ([2]; 1st Day): 10.9 | Kunkel phenol test (K1) ([2]; 1st Day): 8.1 | Kunkel phenol test (K2) ([2]; 1st Day): 12.6 | esterification ratio (E/T) ([2]; 1st Day): 0.49 | esterified cholesterol (E) ([2]; 1st Day): 0.28 | free cholesterol (L) ([2]; 1st Day): 0.29 | serum lipids (LS) ([2]; 1st Day): 2.1 | total cholesterol (T) ([2]; 1st Day): 0.57 | Burstein test with dextrane (B) ([2]; 30th Day): 21.1 | Kunkel phenol test (K1) ([2]; 30th Day): 18.8 | Kunkel phenol test (K2) ([2]; 30th Day): 25.0 | esterification ratio (E/T) ([2]; 30th Day): 0.62 | esterified cholesterol (E) ([2]; 30th Day): 0.91 | free cholesterol (L) ([2]; 30th Day): 0.54 | serum lipids (LS) ([2]; 30th Day): 2.85 | total cholesterol (T) ([2]; 30th Day): 1.45 | Burstein test with dextrane (B) ([2]; 75th Day): 35.9 | Kunkel phenol test (K1) ([2]; 75th Day): 32.8 | Kunkel phenol test (K2) ([2]; 75th Day): 41.8 | esterification ratio (E/T) ([2]; 75th Day): 0.60 | esterified cholesterol (E) ([2]; 75th Day): 1.78 | free cholesterol (L) ([2]; 75th Day): 1.14 | serum lipids (LS) ([2]; 75th Day): 4.1 | total cholesterol (T) ([2]; 75th Day): 2.92 | aortic atheromatous lesions [3]: 1.2 | fatty infiltrations of the liver [3]: 1.0 | LD50 at 24 h [4]: 41 mg/kg

Clc1ccccc1N1CCN(CCCNC2CCCCC2)CC1 [Derivative no. 6, 4-(o-chlorophenyl)-1-(3-cyclohexylamino)-propylpiperazine trihydrochloride]
Free cholesterol [5]: 0.15 g/L | Total cholesterol [5]: 0.53 g/L | average percentage of analgesia [1]: 61% | LD50 at 24 h [4]: 62 mg/kg

Cl.Cl.Clc1ccc(N2CCN(CCCN3CCCC3)CC2)cc1 [Derivative no. 7, 1-(p-chlorophenyl)-4-(3-pyrrolidino-propyl)-piperazine dihydrochloride]
Free cholesterol [5]: 0.12 g/L | Total cholesterol [5]: 0.50 g/L | average percentage of analgesia [1]: 69% | Burstein test with dextrane (B) ([2]; 1st Day): 10.6 | Kunkel phenol test (K1) ([2]; 1st Day): 8.1 | Kunkel phenol test (K2) ([2]; 1st Day): 13.2 | esterification ratio (E/T) ([2]; 1st Day): 0.51 | esterified cholesterol (E) ([2]; 1st Day): 0.27 | free cholesterol (L) ([2]; 1st Day): 0.25 | serum lipids (LS) ([2]; 1st Day): 1.98 | total cholesterol (T) ([2]; 1st Day): 0.52 | Burstein test with dextrane (B) ([2]; 30th Day): 21.2 | Kunkel phenol test (K1) ([2]; 30th Day): 18.5 | Kunkel phenol test (K2) ([2]; 30th Day): 25.2 | esterification ratio (E/T) ([2]; 30th Day): 0.63 | esterified cholesterol (E) ([2]; 30th Day): 0.96 | free cholesterol (L) ([2]; 30th Day): 0.55 | serum lipids (LS) ([2]; 30th Day): 2.88 | total cholesterol (T) ([2]; 30th Day): 1.51 | Burstein test with dextrane (B) ([2]; 75th Day): 35.6 | Kunkel phenol test (K1) ([2]; 75th Day): 32.9 | Kunkel phenol test (K2) ([2]; 75th Day): 50.0 | esterification ratio (E/T) ([2]; 75th Day): 0.62 | esterified cholesterol (E) ([2]; 75th Day): 1.83 | free cholesterol (L) ([2]; 75th Day): 1.12 | serum lipids (LS) ([2]; 75th Day): 3.97 | total cholesterol (T) ([2]; 75th Day): 2.95 | aortic atheromatous lesions [3]: 1.4 | fatty infiltrations of the liver [3]: 1.2 | LD50 at 24 h [4]: 66 mg/kg

COc1ccc(N2CCN(CCCN3CCCC3)CC2)cc1.Cl.Cl.Cl [Derivative no. 8, 1-(p-methoxyphenyl)-4-(3-pyrrolidino-propyl)-piperazine trihydrochloride]
Percentage anti-inflammatory activity ([6]; after 1 hr): 37% | Percentage anti-inflammatory activity ([6]; after 2 hrs): 48% | Percentage anti-inflammatory activity ([6]; after 3 hrs): 50% | Percentage anti-inflammatory activity ([6]; after 5 hrs): 54% | LD50 at 24 h [4]: 74 mg/kg | Percentage reduction in oedematous reaction ([7]; 2nd hour): 55% | Percentage reduction in oedematous reaction ([7]; 3rd hour): 68%

Clc1ccc(N2CCN(CCCN3CCOCC3)CC2)cc1 [Derivative no. 9, dimaleate]
Free cholesterol [5]: 0.13 g/L | Total cholesterol [5]: 0.57 g/L | LD50 at 24 h [4]: 100 mg/kg
